Reference: PubChem BioAssay (NCI)
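Values below derive from 48-hour exposures of cells grown in 96-well plates, with endpoints linearly interpolated between the two concentrations bracketing the appropriate inhibition level. The concentration for full growth arrest is given as TGI.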

Assays:
Assay in all cases: DTP human tumour cell line panel, 48 h
[1] = tested on: 786-0 renal
[2] = tested on: A498 renal
[3] = tested on: A549 NSCLC
[4] = tested on: ACHN renal
[5] = tested on: BT-549 breast
[6] = tested on: CCRF-CEM leukemia
[7] = tested on: COLO 205 colon
[8] = tested on: DU-145 prostate
[9] = tested on: EKVX NSCLC
[10] = tested on: HCC-2998 colon
[11] = tested on: HCT-116 colon
[12] = tested on: HCT-15 colon
[13] = tested on: HL-60(TB) leukemia
[14] = tested on: HOP-62 NSCLC
[15] = tested on: HOP-92 NSCLC
[16] = tested on: HS 578T breast
[17] = tested on: HT29 colon
[18] = tested on: IGROV1 ovarian
[19] = tested on: K-562 leukemia
[20] = tested on: KM12 colon
[21] = tested on: LOX IMVI melanoma
[22] = tested on: M14 melanoma
[23] = tested on: MALME-3M melanoma
[24] = tested on: MDA-MB-435
[25] = tested on: MDA-N
[26] = tested on: MOLT-4 leukemia
[27] = tested on: NCI-H226 lung
[28] = tested on: NCI-H460 lung
[29] = tested on: NCI-H522 lung
[30] = tested on: NCI/ADR-RES ovarian
[31] = tested on: OVCAR-3 ovarian
[32] = tested on: OVCAR-4 ovarian
[33] = tested on: OVCAR-5 ovarian
[34] = tested on: OVCAR-8 ovarian
[35] = tested on: PC-3 prostate
[36] = tested on: RPMI-8226 leukemia
[37] = tested on: RXF 393 renal
[38] = tested on: SF-268 CNS
[39] = tested on: SF-295 CNS
[40] = tested on: SF-539 CNS
[41] = tested on: SK-MEL-2 melanoma
[42] = tested on: SK-MEL-28 melanoma
[43] = tested on: SK-MEL-5 melanoma
[44] = tested on: SK-OV-3 ovarian
[45] = tested on: SN12C renal
[46] = tested on: SNB-19 CNS
[47] = tested on: SNB-75 CNS
[48] = tested on: SR leukemia
[49] = tested on: SW-620 colon
[50] = tested on: T-47D breast
[51] = tested on: TK-10 renal
[52] = tested on: U251 CNS
[53] = tested on: UACC-257 melanoma
[54] = tested on: UACC-62 melanoma
[55] = tested on: UO-31 renal
[56] = tested on: CAKI-1 renal
[57] = tested on: MDA-MB-231 breast
[58] = tested on: NCI-H23 lung

Measured: TGI

CCOC(=O)c1c(N2CCCC2)ncn(-c2ccccc2)c1=S
> 100 µM: [1] | [2] | [3] | [4] | [5] | [6] | [7] | [8] | [9] | [10] | [11] | [12] | [13] | [14] | [15] | [16] | [17] | [18] | [19] | [20] | [21] | [22] | [23] | [24] | [25] | [26] | [27] | [28] | [29] | [30] | [31] | [32] | [33] | [34] | [35] | [36] | [37] | [38] | [39] | [40] | [41] | [42] | [43] | [44] | [45] | [46] | [47] | [48] | [49] | [50] | [51] | [52] | [53] | [54] | [55]

COc1nc(N(C)C)nc2c1n(C)c[n+]2C
> 100 µM: [1] | [2] | [3] | [4] | [5] | [56] | [6] | [7] | [8] | [9] | [11] | [12] | [13] | [14] | [15] | [16] | [17] | [18] | [19] | [20] | [21] | [22] | [23] | [57] | [24] | [25] | [26] | [27] | [58] | [28] | [29] | [30] | [31] | [33] | [34] | [35] | [36] | [37] | [38] | [39] | [40] | [41] | [42] | [43] | [44] | [45] | [46] | [47] | [49] | [50] | [51] | [52] | [53] | [54] | [55]
